Experimental data published in publication PMC10045663, “Synthesis, In Vitro Biological Evaluation of Antiproliferative and Neuroprotective Effects and In Silico Studies of Novel 16E-Arylidene-5α,6α-epoxyepiandrosterone Derivatives” (Biomedicines, 2023).
One block for each compound: values may come before it.

Key:
5AR type 2 = tested on: 5AR type 2; design: method as in PMID 26377677; settings: read-out: IC50 against 5AR type 2; cited from earlier work
[1] = tested on: NHDF cells (normal human dermal fibroblasts); assay: MTT cell proliferation assay, NHDF cells; format: cell-based; settings: Homo sapiens, NHDF, 72 h, non-tumoral cells, read-out: Estimated IC50, NHDF
Description: (§1) LNCaP, PC-3, MCF-7, PNT1A, N27, and NHDF cells were obtained from the American Type Culture Collection (ATCC; Manassas, VA, USA) and were cultured in 75 cm^2 culture flasks at 37 °C in a humidified air incubator with 5% CO2. LNCaP, PC-3, PNT1A, and N27 cells, respectively, were cultured in RPMI 1640 medium (Sigma-Aldrich, Inc. St. Louis, MO, USA) with 10% fetal bovine serum (FBS; Sigma-Aldrich, Inc. St. Louis, MO, USA) and 1% of the antibiotic mixture of 10,000 U/mL penicillin G and […] streptomycin (Sp, Sigma-Aldrich, Inc. St. Louis, MO, USA). MCF-7 cells were cultured in DMEM medium (Sigma-Aldrich, Inc. St. Louis, MO, USA) supplemented with 10% fetal bovine serum (FBS; Sigma-Aldrich, Inc. St. Louis, MO, USA) and 1% antibiotic/antimycotic (10,000 U/mL penicillin G, […] streptomycin, and 25 µg/mL amphotericin B: Ab, Sigma-Aldrich, Inc. St. Louis, MO, USA). Finally, NHDF cells were cultured in RPMI 1640 medium supplemented with 10% FBS, 2 mM L-glutamine, 10 mM HEPES, 1 mM sodium pyruvate, and 1% of the antibiotic/antimycotic Ab, and these cells were used in passages 10th to 14th. For all cell types, the medium was renewed every 2 days until cells nearly reached the confluence state. When cells reach approximately 90–95% confluence, they are gently detached by trypsinization (trypsin-EDTA solution: 0.125 g/L of trypsin and 0.02 g/L of EDTA). Before each experiment, viable cells were counted in a Neubauer chamber by a trypan-blue exclusion assay and adequately diluted in the appropriate complete cell culture medium.
(§2) All tested compounds were dissolved in dimethyl sulfoxide (DMSO; Sigma-Aldrich, Inc. St. Louis, MO, USA) at a concentration of 10 mM and stored at 4 °C. From the mother-solutions, the diluted solutions of the compounds, in different concentrations, were prepared in the respective complete culture medium before each experiment.
(§3) After reaching a confluence state, cells were trypsinized and counted by the trypan-blue exclusion assay and then seeded with an initial density of 2 × 10^4 cells/mL in 96-well culture plates (Nunc, Apogent, Denmark) and left to adhere and grow for 48 h. Subsequently, the medium was removed, and the cells were treated with compound solutions (10 and 50 µM for preliminary studies and 0.01, 0.1, 1, 10, 50, and 100 µM for concentration-response studies) in complete culture medium for 72 h. 5-Fluorouracil (5-FU) was used as a positive control, and untreated cells were used as the negative control. Compounds leading to cell proliferation relative to control clearly below 50%, at 10 µM, or clearly below 25%, at 50 µM, in the screening studies were selected to concentration-response studies in tumoral cell lines. Each experiment was performed in quadruplicate and independently at least two times. The in vitro antiproliferative effects were evaluated by the MTT assay (Sigma-Aldrich, Inc. St. Louis, MO, USA). After the incubation period, the medium was removed, and 100 µL of phosphate buffer saline (PBS, NaCl 137 mM; KCl 2.7 mM; Na2HPO4 10 mM; and KH2PO4 1.8 mM in deionized water with a pH adjusted to 7.4) were used to wash the cells. Then, 100 µL of the MTT solution (5 mg/mL) was prepared in the appropriate serum-free medium and added to each well, followed by incubation for 4 h at 37 °C. Hereafter, the MTT containing medium was removed, and the formazan crystals were dissolved in DMSO. Then, the absorbance was measured at 570 nm using a xMarkTM microplate spectrophotometer from BIO-RAD Laboratories. Cell viability values were expressed as percentages relative to the negative control.

[2] = tested on: PNT1A (normal prostate cells); assay: MTT cell proliferation assay, PNT1A cells; format: cell-based; settings: Homo sapiens, PNT1A, 72 h, non-tumoral cells, read-out: Estimated IC50, PNT1A
Description: as §1, §2, §3

[3] = tested on: N27 (rat dopaminergic neuronal cells); assay: MTT cell proliferation assay, N27 cells; format: cell-based; settings: Rattus norvegicus, N27, 72 h, non-tumoral cells, read-out: Estimated IC50, N27
Description: as §1, §2, §3

[4] = tested on: LNCaP cells (androgen-dependent prostatic cancer); assay: MTT cell proliferation assay, LNCaP cells; format: cell-based; settings: Homo sapiens, LNCaP; MTT, 72 h, tumoral cells; read-out: Estimated IC50, LNCaP
Description: as §1, §2, §3

[5] = tested on: PC-3 cells (androgen-independent prostatic cancer); assay: MTT cell proliferation assay, PC-3 cells; format: cell-based; settings: Homo sapiens, PC-3; MTT, 72 h, tumoral cells; read-out: Estimated IC50, PC-3
Description: as §1, §2, §3

[6] = tested on: MCF-7 cells (estrogen-responsive breast cancer cells); assay: MTT cell proliferation assay, MCF-7 cells; format: cell-based; settings: Homo sapiens, MCF7; MTT, 72 h, tumoral cells; read-out: Estimated IC50, MCF-7
Description: as §1, §2, §3

MCF-7 cells [7] = assay: Immunocytochemistry assay, Ki67 staining; format: cell-based; settings: 48 h
Description: MCF-7 cells were trypsinized and counted by the trypan-blue exclusion assay, and then cells were seeded with an initial density of 3 × 10^4 cells/mL in 24-well culture plates (Nunc, Apogent, Denmark) containing circular coverslips of 10 mm diameter. Following seeding (48 h), cells were treated with 1 and 10 µM concentrations of 5-FU, as positive controls, and steroid 19 for 48 h. Untreated cells were used as a negative control. After this period, photograph shots were acquired at an optical microscope coupled with a digital camera (Supplementary Material, S2). Subsequently, the medium was removed, and cells were fixed with 10% formalin (15 min, room temperature). After fixation, cells were washed three times with PBS, permeabilized, and blocked for non-specific binding sites for 1 h with 0.5% Triton X-100 and 6% BSA at room temperature. Cells were incubated at 4 °C with 30 μL/coverslip of primary antibody, rabbit polyclonal anti-Ki67 (1:50, Abcam Plc.), prepared in 0.3% BSA and 0.1% Triton X-100, overnight. Then, cells were washed three times with PBS and incubated for 1 h, at room temperature, with 30 μL/coverslip of a solution containing the secondary antibody, Alexa Fluor 488 donkey anti-rabbit (1:200, Life Technologies), and the nuclear marker Hoechst-33342 (1:500, Life Technologies) prepared in PBS. Lastly, the coverslips were washed three times with PBS, mounted on a drop of the fluoroshield mounting medium (Abcam, Plc.) on a microscope slide, and left to dry for 24 h. Photomicrographs were taken using an Axio Imager A1 microscope (Carl Zeiss, Göttingen, Germany) with the 40 × objective.

MCF-7 cells [8] = assay: PI incorporation (propidium iodide staining); format: cell-based; settings: 48 h
Description: After 48 h of being seeded at the same conditions explained in the previous (Section 2.2.4), MCF-7 cells were treated with the steroidal derivatives 19 and 5-FU at 1 and 10 µM and maintained in culture for 48 h. Untreated cells were also used as a negative control. Subsequently, cells were incubated with 20 µL/per well of a propidium iodide solution (PI; 1 mg/mL in PBS; Sigma-Aldrich Co. LLC) for 25 min at 37 °C. Then, the medium was removed, and the cells were fixed with 10% formalin for 15 min at room temperature. Cells were washed three times with PBS and incubated with 30 µL/per coverslip of Hoechst-33342 (1:500) for 10 min. After incubation, cells were washed three times with PBS. Coverslips were mounted on a drop of the fluoroshield mounting medium on a microscope slide, left to dry for 24 h, and then visualized in a Zeiss Axio Imager A1 microscope with the 40× objective.

MCF-7 cells [9] = assay: Nearest neighbor distance analysis with ImageJ; format: cell-based; settings: MCF-7, 1 and 10 µM, 48 h
Source text: The nuclear measurements were achieved by converting 16-bit photomicrographs of Hoechst 33342-stained nuclei in different studied conditions into 8-bit images. Then, these imagens were autothresholded to binary photos using the default “Make binary” function of ImageJ (v. 1.49) software (NIH Image, Bethesda, MD, USA). Cell nuclei that are touching were separated and fragments were discarded based on area through “Analyze Particle” function. This function also provides several other information, such as nuclear area (NA), circumference, and form factor [26]. Furthermore, the “Nearest Neighbor Distance” (NND) was determined. This function allows measuring the distance between each cell nucleus and the nearest ones, providing information about cell distribution.

[10] = tested on: T47-D cells (breast cancer); design: method as in PMID 23635011; settings: MTT assay, read-out: IC50 against T47-D cells; cited from earlier work
[11] = tested on: KB (nasopharyngeal epidermoid carcinoma); design: method as in PMID 23635011; settings: read-out: IC50 against KB cells; cited from earlier work

Compound: C[C@]12CCC3C(C[C@@H]4O[C@@]45C[C@@H](O)CC[C@]35C)C1CC=C2C(=O)COC(=O)c1ccc(F)cc1 (stereo partly drawn) [21(p-fluoro)benzoyloxy-5α,6α-epoxy-3β-hydroxypregna-16-en-20-one]
IC50 (5AR type 2): 0.179 µM

IC50 [4]: 9.43 µM
IC50 [5]: 21.2 µM
IC50 [6]: 6.3 µM
Compound: O=c1[nH]cc(F)c(=O)[nH]1 [Compound 5-FU, 5-Fluorouracil, reference compound]
IC50 [1]: 6.34 µM
IC50 [2]: 6.48 µM
IC50 [3]: 3.19 µM
Ki67-positive cells relative to control (MCF-7 cells [7]; MCF-7, 1 µM): none of the compounds significantly affected
Ki67-positive cells relative to control (MCF-7 cells [7]; MCF-7, 10 µM): statistically significant decrease
PI-positive cells relative to the negative control (MCF-7 cells [8]; MCF-7, 1 µM): no significant effect
PI-positive cells relative to the negative control (MCF-7 cells [8]; MCF-7, 10 µM): significantly increase
cell distribution (nearest neighbor distance, NND) (MCF-7 cells [9]): more random distribution with nuclei more spaced

Compound: C[C@]12CC[C@H](O)CC1=CCC1C2CC[C@]2(C)C(=O)/C(=C/c3cccc(Cl)c3)CC12 (some centres unmarked) [reference compound]
IC50 [10]: 1.7 µM
IC50 [11]: 0.6 µM
